In paper PMC4558116, “Inhibition of COP9-signalosome (CSN) deneddylating activity and tumor growth of diffuse large B-cell lymphomas by doxycycline” (Oncotarget, 2015):

Biological target: T1, CSN5 (COP-9 signalosome deneddylase subunit) (Homo sapiens, UniProt Q92905)
T1 construct: gene COPS5; purified CSN complex; with COP9 signalosome (CSN) complex; substrate Nedd8-conjugated SCF^Skp2 (Cullin-1)
Test: fluorescence polarization deneddylation assay with purified CSN and Oregon Green-Nedd8-SCF^Skp2
Type: biochemical

T1 sequence (Q92905 2-334): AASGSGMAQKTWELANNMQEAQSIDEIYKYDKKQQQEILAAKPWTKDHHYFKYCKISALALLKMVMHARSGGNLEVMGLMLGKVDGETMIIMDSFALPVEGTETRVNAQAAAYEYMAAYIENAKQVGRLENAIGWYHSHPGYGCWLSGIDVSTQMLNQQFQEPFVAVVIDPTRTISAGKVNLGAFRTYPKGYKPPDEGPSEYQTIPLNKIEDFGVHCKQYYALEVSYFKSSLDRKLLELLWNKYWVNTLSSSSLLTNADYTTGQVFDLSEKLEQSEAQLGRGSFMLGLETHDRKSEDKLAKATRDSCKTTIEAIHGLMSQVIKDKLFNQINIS

C[C@H]1c2cccc(O)c2C(=O)C2=C(O)[C@]3(O)C(=O)C(C(N)=O)=C(O)[C@@H](N(C)C)[C@@H]3[C@@H](O)[C@@H]21 [doxycycline] gave an IC50 of roughly 110 µM.
